Results published in PubChem BioAssay AID1963964 (Molecular Pharmacology Branch, DTP, NCI, 2024).
Each block holds one compound with its values, some of them ahead of it.

System: 997726-040-R-J2-PDC tumor spheroids, viability
Assay: Anticancer human tumor 997726-040-R-J2-PDC patient-derived squamous cell lung carcinoma cell line growth inhibition [PI3K]
Conditions: spheroids with HUVEC and MSC; for IC50: curve of first compound; for viability, T/C: stronger effect = lower value
How it was run: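 Targeted small molecules plus PI3K inhibitors, half-log dose series from Cmax (default top 10 microM), were applied to heterotypic spheroids of cancer cells with HUVEC and MSCs. Viability indicated growth inhibition.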
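Note: spheroids exposed to compounds for seven days before readout.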

- IC50 (second compound 0.0316 µM): > 10000 nM
- IC50 (second compound 0.1 µM): > 10000 nM
- IC50 (second compound 0.316 µM): > 10000 nM
- IC50 (second compound 1 µM): > 10000 nM
- IC50 (second compound 3.16 µM): > 10000 nM
- IC50 (second compound 10 µM): > 10000 nM
SMILES: CNC(=O)c1ccc(N2C(=S)N(c3ccc(C#N)c(C(F)(F)F)c3)C(=O)C2(C)C)cc1F + CC(Nc1ncnc2nc[nH]c12)c1cc2cccc(Cl)c2c(=O)n1-c1ccccc1
- viability, T/C (second compound 0.0316 µM, first compound 0.0316 µM): 88.7%
- viability, T/C (second compound 0.0316 µM, first compound 0.1 µM): 97.8%
- viability, T/C (second compound 0.0316 µM, first compound 0.316 µM): 115%
- viability, T/C (second compound 0.0316 µM, first compound 1 µM): 90.4%
- viability, T/C (second compound 0.0316 µM, first compound 3.16 µM): 102%
- viability, T/C (second compound 0.0316 µM, first compound 10 µM): 86.7%
- viability, T/C (second compound 0.1 µM, first compound 0.0316 µM): 98%
- viability, T/C (second compound 0.1 µM, first compound 0.1 µM): 93.6%
- viability, T/C (second compound 0.1 µM, first compound 0.316 µM): 97%
- viability, T/C (second compound 0.1 µM, first compound 1 µM): 107%
- viability, T/C (second compound 0.1 µM, first compound 3.16 µM): 104%
- viability, T/C (second compound 0.1 µM, first compound 10 µM): 92.4%
- viability, T/C (second compound 0.316 µM, first compound 0.0316 µM): 104%
- viability, T/C (second compound 0.316 µM, first compound 0.1 µM): 109%
- viability, T/C (second compound 0.316 µM, first compound 0.316 µM): 101%
- viability, T/C (second compound 0.316 µM, first compound 1 µM): 99.2%
- viability, T/C (second compound 0.316 µM, first compound 3.16 µM): 104%
- viability, T/C (second compound 0.316 µM, first compound 10 µM): 90.2%
- viability, T/C (second compound 1 µM, first compound 0.0316 µM): 96.7%
- viability, T/C (second compound 1 µM, first compound 0.1 µM): 86.6%
- viability, T/C (second compound 1 µM, first compound 0.316 µM): 78.7%
- viability, T/C (second compound 1 µM, first compound 1 µM): 85%
- viability, T/C (second compound 1 µM, first compound 3.16 µM): 89%
- viability, T/C (second compound 1 µM, first compound 10 µM): 86.9%
- viability, T/C (second compound 3.16 µM, first compound 0.0316 µM): 71%
- viability, T/C (second compound 3.16 µM, first compound 0.1 µM): 73.8%
- viability, T/C (second compound 3.16 µM, first compound 0.316 µM): 72.6%
- viability, T/C (second compound 3.16 µM, first compound 1 µM): 80%
- viability, T/C (second compound 3.16 µM, first compound 3.16 µM): 80.3%
- viability, T/C (second compound 3.16 µM, first compound 10 µM): 66.2%
- viability, T/C (second compound 10 µM, first compound 0.0316 µM): 59.5%
- viability, T/C (second compound 10 µM, first compound 0.1 µM): 53.9%
- viability, T/C (second compound 10 µM, first compound 0.316 µM): 50.6%
- viability, T/C (second compound 10 µM, first compound 1 µM): 48%
- viability, T/C (second compound 10 µM, first compound 3.16 µM): 54.4%
- viability, T/C (second compound 10 µM, first compound 10 µM): 50%

- IC50 (second compound 0.0316 µM): 553 nM
- IC50 (second compound 0.1 µM): 467 nM
- IC50 (second compound 0.316 µM): 319 nM
- IC50 (second compound 1 µM): 574 nM
- IC50 (second compound 3.16 µM): 60.1 nM
- IC50 (second compound 10 µM): < 9.49 nM
SMILES: Cn1cnc2c(F)c(Nc3ccc(Br)cc3Cl)c(C(=O)NOCCO)cc21 + CC(Nc1ncnc2nc[nH]c12)c1cc2cccc(Cl)c2c(=O)n1-c1ccccc1
- viability, T/C (second compound 0.0316 µM, first compound 0.00949 µM): 66.7%
- viability, T/C (second compound 0.0316 µM, first compound 0.03 µM): 64.8%
- viability, T/C (second compound 0.0316 µM, first compound 0.0949 µM): 55.7%
- viability, T/C (second compound 0.0316 µM, first compound 0.3 µM): 54.2%
- viability, T/C (second compound 0.0316 µM, first compound 0.949 µM): 45.7%
- viability, T/C (second compound 0.0316 µM, first compound 3 µM): 44.4%
- viability, T/C (second compound 0.1 µM, first compound 0.00949 µM): 84.3%
- viability, T/C (second compound 0.1 µM, first compound 0.03 µM): 68.9%
- viability, T/C (second compound 0.1 µM, first compound 0.0949 µM): 55.1%
- viability, T/C (second compound 0.1 µM, first compound 0.3 µM): 54.9%
- viability, T/C (second compound 0.1 µM, first compound 0.949 µM): 49.8%
- viability, T/C (second compound 0.1 µM, first compound 3 µM): 41.5%
- viability, T/C (second compound 0.316 µM, first compound 0.00949 µM): 71.5%
- viability, T/C (second compound 0.316 µM, first compound 0.03 µM): 62.2%
- viability, T/C (second compound 0.316 µM, first compound 0.0949 µM): 54.1%
- viability, T/C (second compound 0.316 µM, first compound 0.3 µM): 51.1%
- viability, T/C (second compound 0.316 µM, first compound 0.949 µM): 49.1%
- viability, T/C (second compound 0.316 µM, first compound 3 µM): 40.5%
- viability, T/C (second compound 1 µM, first compound 0.00949 µM): 72%
- viability, T/C (second compound 1 µM, first compound 0.03 µM): 70.1%
- viability, T/C (second compound 1 µM, first compound 0.0949 µM): 51.5%
- viability, T/C (second compound 1 µM, first compound 0.3 µM): 55.8%
- viability, T/C (second compound 1 µM, first compound 0.949 µM): 49.9%
- viability, T/C (second compound 1 µM, first compound 3 µM): 42.4%
- viability, T/C (second compound 3.16 µM, first compound 0.00949 µM): 56.8%
- viability, T/C (second compound 3.16 µM, first compound 0.03 µM): 56%
- viability, T/C (second compound 3.16 µM, first compound 0.0949 µM): 46.3%
- viability, T/C (second compound 3.16 µM, first compound 0.3 µM): 42.4%
- viability, T/C (second compound 3.16 µM, first compound 0.949 µM): 40.7%
- viability, T/C (second compound 3.16 µM, first compound 3 µM): 35.2%
- viability, T/C (second compound 10 µM, first compound 0.00949 µM): 46.1%
- viability, T/C (second compound 10 µM, first compound 0.03 µM): 38.5%
- viability, T/C (second compound 10 µM, first compound 0.0949 µM): 32.6%
- viability, T/C (second compound 10 µM, first compound 0.3 µM): 30.7%
- viability, T/C (second compound 10 µM, first compound 0.949 µM): 32.6%
- viability, T/C (second compound 10 µM, first compound 3 µM): 24.7%
